From patent US20160084820A1, “METHODS OF TREATING OR PREVENTING PERIODONTITIS AND DISEASES ASSOCIATED WITH PERIODONTITIS” (priority 2010, published 2016)
Read-outs that look alike come from different tables or passages of the source.

Assays:
intracellular cAMP = assay: cAMP enzyme immunoassay in P. gingivalis-stimulated macrophages; format: cell-based, mouse; settings: C5aRA 1 μM; thapsigargin 1 μM; EGTA 5 mM; pertussis toxin 100 ng/ml; AMD3100 1 μg/ml; C5a 50 nM; 1 hour
[1] = test system: phagocytosed P. gingivalis in mouse peritoneal macrophages; format: cell-based, P. gingivalis ATCC 33277
Procedure: The viability of phagocytosed P. gingivalis was monitored by an antibiotic protection-based intracellular survival assay, as previously described (Wang et al., 2007, J. Immunol., 179:2349-58). Briefly, mouse peritoneal macrophages were allowed to phagocytose P. gingivalis (MOI=10:1; 5×10^6 bacteria and 5×10^5 cells) for […] at 37° C. This was followed by washing to remove extracellular nonadherent bacteria and 1-hour treatment with antibiotics (300 μg/ml gentamicin and 200 μg/ml metronidazole) to eliminate residual or extracellular adherent bacteria. The macrophages were subsequently cultured overnight (for a total of 24 hours) or for 48 hours Immediately after, the macrophages were washed and lysed in sterile distilled water, and viable counts of internalized P. gingivalis were determined by plating serial dilutions of macrophage lysates on blood agar plates subjected to anaerobic culture.
The viability of phagocytosed P. gingivalis was monitored by an antibiotic protection-based intracellular survival assay, as previously described (Wang et al., 2007, J. Immunol., 179:2349-58)). Briefly, mouse peritoneal macrophages were allowed to phagocytose P. gingivalis (at a MOI=10:1; 5×10^6 bacteria and 5×10^5 macrophages) for 30 min at 37° C. This was followed by washing to remove extracellular nonadherent bacteria and 1-hour treatment with antibiotics (300 μg/ml gentamicin and 200 μg/ml metronidazole) to eliminate residual or extracellular adherent bacteria. The macrophages were subsequently cultured overnight for a total of 24 hours Immediately after, the macrophages were washed and lysed in sterile distilled water and viable counts of internalized P. gingivalis were determined by plating serial dilutions of macrophage lysates on blood agar plates subjected to anaerobic culture.

nitric oxide production = assay: NO2− (nitric oxide) production, Griess reaction-based assay, macrophages; format: cell-based, mouse; settings: 24 hours; for reversal of the inhibitory C5a effect on nitric oxide: SQ22536 200 μM, H89 5 μM, chelerythrin 5 μM, PKI 6-22 1 μM, KT5823 1 μM, C5a 50 nM
[2] = test system: GSK3β Ser9-phosphorylation; assay: GSK3β Ser9 phosphorylation ELISA in macrophages; format: cell-based, mouse; settings: PKI-6-22 1 μM; PD98059 25 μM
Procedure: PKA activity in lysates of activated cells was determined using the ProFluor™ PKA assay, according to the instructions of the manufacturer (Promega) (Hajishengallis et al., 2008, PNAS USA, 105:13532-7). Phosphorylation of GSK313 on Ser9 and total GSK3β were monitored using FACE™ GSK3β ELISA kits (Active Motif).

iNOS expression = assay: iNOS expression, quantitative real-time PCR, macrophages; format: cell-based, mouse; settings: SB216763 10 μM; 8-Br-cAMP 100 μM; 4 hours
Procedure: Gene expression in resting or activated mouse macrophages was quantified using quantitative real-time PCR. Briefly, RNA was extracted from cell lysates using the PerfectPure RNA cell kit (5 Prime, Fisher) and quantified by spectrometry at 260 and 280 nm. The RNA was reverse-transcribed using the High-Capacity cDNA Archive kit (Applied Biosystems) and quantitative real-time PCR with cDNA was performed using the ABI 7500 Fast System, according to the manufacturer's protocol (Applied Biosystems). TaqMan probes, sense primers, and antisense primers for expression of a house-keeping gene (GAPDH) or iNOS (or the genes shown in FIG. 7) were purchased from Applied Biosystems.

IL-12p70 production = assay: IL-12p70 induction in IFN-gamma-primed macrophages, ELISA; format: cell-based, mouse; settings: for reversal of C5a inhibition of P. gingivalis- or LPS-induced IL-12p70: C5a 50 nM
Procedure: (§1) Induction of nitric oxide production was assessed by measuring the amount of NO2− (stable metabolite of nitric oxide) in stimulated culture supernatants using a Griess reaction-based assay kit (R&D Systems), as previously performed (Hajishengallis et al., 2008, PNAS USA, 105:13532-7). Levels of cAMP in activated cell extracts were measured using a cAMP enzyme immunoassay kit (Cayman Chemical) (Liang et al., 2007, J. Immunol., 178:4811-9). C5a-induced intracellular calcium mobilization was monitored in cells (4×10^6) loaded with 1 μM Indo 1-AM in the presence of 1 μM pluronic acid, as previously described (Ali et al., 1993, J. Biol. Chem., 268:24247-54). Calcium traces were recorded in a Perkin-Elmer fluorescence spectrometer (Model 650-19) with an excitation wavelength of 355 nm and an emission wavelength of 405 nm. Induction of cytokine production in activated cell culture supernatants or in the peritoneal fluid of infected mice was determined by ELISA using kits from eBioscience or Cell Sciences. C5a levels were measured by sandwich ELISA, employing a pair of capture and biotinylated anti-05a mAbs (BD Pharmingen), according to the manufacturer's protocol.
Whether C5a inhibits P. gingivalis-induced IL-12p70 in peritoneal macrophages was investigated. Since macrophages are generally poor producers of IL-12p70 in vitro unless primed with IFN-gamma, macrophages used in these experiments were primed with IFN-gamma (0.1 μg/ml). […] The host TLR response against P. gingivalis is predominantly mediated by TLR2, both in vitro and in vivo. Therefore, whether C5a-mediated inhibition of P. gingivalis-induced IL-12p70 could involve a C5aR-TLR2 crosstalk additionally was examined.

P. gingivalis [3] = assay: Subcutaneous titanium-coil chamber model; format: in vivo, mouse; settings: wild-type mice, 24 h post-infection
Procedure: Using the ‘chamber’ model, bacteria were injected into the lumen of a subcutaneously implanted titanium-coil chamber such that bacterial interactions with recruited inflammatory cells can be assessed accurately and quantitatively (Burns et al., 2006, J. Immunol., 177:8296-8300; Genco et al., 1991, Infect. Immun., 59:1255-63; and Graves et al., 2008, J. Clin. Periodontol., 35:89-105).

P. gingivalis [4] = assay: I.p. challenge model: P. gingivalis CFU, NO2− and bacteremia; format: in vivo, mouse
Excerpt: All animal procedures were approved by the Institutional Animal Care and Use Committee and performed in compliance with established federal and state policies.

[5] = test system: P. gingivalis-induced cytokine production; settings: C5aRA i.p. 25 pg/mouse; 5 h post-infection
Procedure: as §1
10-12 week-old mice were infected i.p. with P. gingivalis (5×10^7 CFU) and sampled by peritoneal lavage to measure production of cytokines and enumerate recovered CFU (following anaerobic growth on blood agar plates) (Hajishengallis et al., 2008, PNAS USA, 105:13532-7), as detailed in the respective figure description.
First, it was essential to determine whether C5aR signaling can regulate P. gingivalis-induced IL-12p70 production in vivo. For this purpose, wild-type mice were i.p.-administered C5aRA followed by i.p. challenge with P. gingivalis. Mice deficient in C5aR or TLR2 were similarly challenged with P. gingivalis, and all mice were sampled 5 h post-infection by peritoneal lavage.

[6] = test system: periodontal inflammatory responses; assay: Oral Pg infection, gingival IL-1beta and TNF-alpha mRNA after local C5aRA microinjection; format: in vivo, mouse
Procedure: Experiments were performed to determine an effective dose of C5aRA (PMX-53) that inhibits periodontal inflammatory responses. Briefly, 0.1, 1, or 10 μg C5aRA (or a PBS control) were administered through 1-μl microinjections (using a 28.5-gauge MicroFine needle) on the mesial of the first molar and in the papillae between first and second and third molars, on both sides of the maxilla. These treatments were repeated five times at two day-intervals Immediately following each treatment, the mice were infected orally with Pg in 2% carboxymethylcellulose vehicle (or vehicle only). One week after the last infection, the gingiva were dissected and analyzed by real-time quantitative PCR for mRNA expression of IL-1beta and TNF-alpha (selected as the most typically involved in destructive periodontal inflammation).
Because the antagonist was applied before each Pg infection treatment, this approach was considered preventive. In addition, however, it was determined if C5aRA acts in a therapeutic way (i.e., applied after infection and inflammation occurs). […] The mice were euthanized three days after the last treatment.

[7] = pretreatment 1 μM C5aRA and/or 1 mM L-NAME or D-NAME, Pg with C5a 50 nM, 24 hours
[8] = C5aRA 1 μM, U0126 10 μM, wortmannin 100 nM
[9] = 1 pg applied twice weekly, four times, starting 2 weeks after five oral infections
[10] = 1 μg C5aRA microinjection before each of five Pg infections, one week after last infection

For c1cc(CN2CCCNCCNCCCNCC2)ccc1CN1CCCNCCNCCCNCC1 [AMD3100], the “effect on the synergistic C5a effect on P. gingivalis-induced cAMP” value (from here on “effect … on P. gingivalis-induced cAMP”) (intracellular cAMP) was “modestly attenuated”.

In the case of COC(=O)[C@H](N)CCCN=C(N)N[N+](=O)[O-] [D-NAME, N(G)-nitro-D-arginine methyl ester], the “effect on C5a-protected P. gingivalis intracellular viability” value [1] is reported as “had no effect”.

For O=C(O)CN(CCOCCOCCN(CC(=O)O)CC(=O)O)CC(=O)O [EGTA], the “effect … on P. gingivalis-induced cAMP” value (intracellular cAMP) was “relatively minimal and statistically insignificant effect”.

For O=S(=O)(NCCNC/C=C/c1ccc(Br)cc1)c1cccc2cnccc12 [H89], the “reversal of the inhibitory C5a effect on nitric oxide” value (“reversal of the inhibitory C5a effect” for short) (nitric oxide production) was “reversed”.

In the case of COC(=O)[C@@H](N)CCCNC(=N)N[N+](=O)[O-] [L-NAME, N(G)-nitro-L-arginine methyl ester], the “effect on C5a-protected P. gingivalis intracellular viability” value [1, 7] is reported as “mimicked C5a and overrode the C5aRA effect”.

With COc1cccc(-c2cc(=O)c3ccccc3o2)c1N [PD98059] the “effect on synergistic C5a + P. gingivalis Ser9-phosphorylation of GSK3β” value [2] was “not”.

In the case of Cn1cc(C2=C(c3ccc(Cl)cc3Cl)C(=O)NC2=O)c2ccccc21 [SB216763], the “P. gingivalis-induced iNOS expression” value (iNOS expression) is reported as “mimicked the inhibitory C5a effect” and the “P. gingivalis-induced nitric oxide production” value (nitric oxide production; SB216763 10 μM, 8-Br-cAMP 100 μM) is reported as “mimicked the inhibitory C5a effect”.

NC(N)=NCCC[C@H](NC(=O)COCC(c1ccccc1)c1ccccc1)C(=O)O [SB290157] was tested, and the “reversal of the inhibitory effect of C5a^desArg on IL-12p70” value (IL-12p70 production) was “did not influence”.

With Nc1ncnc2c1ncn2C1CCCO1 (stereo not shown) [SQ22536] the “reversal of the inhibitory C5a effect” value (nitric oxide production) was “reversed”.

N#CC(=C(/N)Sc1ccccc1N)/C(C#N)=C(\N)Sc1ccccc1N [U0126] was tested, and the “LPS-induced IL-12p70 without C5a” value (IL-12p70 production) was “appeared to up-regulate”, the “P. gingivalis-induced IL-12p70 without exogenous C5a” value (IL-12p70 production; [8]) was “appeared to up-regulate” and the “reversal of C5a inhibition of P. gingivalis- or LPS-induced IL-12p70” value (IL-12p70 production; [8]) was “abrogated”.

With C/C=C(/C)C(=O)O[C@H]1C(C)=C2[C@H]([C@@H]1OC(=O)CCCCCCC)[C@@](C)(OC(C)=O)C[C@H](OC(=O)CCC)[C@@]1(O)[C@H]2OC(=O)[C@@]1(C)O [thapsigargin] the “effect … on P. gingivalis-induced cAMP” value (intracellular cAMP) was “abrogated”.

PKI 6-22: peptide inhibitor of PKA was tested, and the “effect on synergistic C5a + P. gingivalis Ser9-phosphorylation of GSK3β” value [2] was “inhibited” and the “reversal of the inhibitory C5a effect” value (nitric oxide production) was “reversed”.

“acetylated phenylalanine-(ornithine-proline-(D)cyclohexylalanine-tryptophan-arginine) [C5aRA]” was tested, and the “Pg viable counts in chamber fluid” value (P. gingivalis [3]) was “reduced Pg viable counts”, the “bacteremia (blood culture for P. gingivalis)” value (P. gingivalis [4]; 24 hours post-infection) was “no bacteremia could be detected” and the “less P. gingivalis CFU in peritoneal lavage fluid compared to PBS control” value (P. gingivalis [4]; C5aRA i.p. 25 μg/mouse, 24 h post-infection) was “about 2 log10 units”. The “reduction of P. gingivalis CFU in peritoneal lavage fluid vs control mice” value (P. gingivalis [4]; C5aRA i.p. 1 mg/Kg body weight, 24 hours post-infection) was greater than 95%, the “nitric oxide production in peritoneal fluid relative to control mice” value (P. gingivalis [4]; C5aRA i.p., 24 hours postinfection) was “elevated nitric oxide production” and the “effect on C5a-protected P. gingivalis intracellular viability” value [1, 7] was “counteracted the protective effect of C5a”. For the same molecule, the “effect … on P. gingivalis-induced cAMP” value (intracellular cAMP) was “totally abrogated”, the “IFN-gamma level in peritoneal fluid vs PBS-treated wild-type controls” value [5] was “significantly higher levels” and the “IL-12p70 level in peritoneal fluid vs PBS-treated wild-type controls” value [5] was “significantly higher levels”. The “IL-23 level in peritoneal fluid vs PBS-treated wild-type controls” value [5] was “significantly higher levels”, the “induction of IL-1beta production in peritoneal fluid” value [5] was “inhibited” and the “induction of IL-6 production in peritoneal fluid” value [5] was “inhibited”. The “induction of TNF-alpha production in peritoneal fluid” value [5] was “inhibited”, the “KDP128-induced IL-12p70 in the absence of exogenously added C5a” value (IL-12p70 production; C5aRA 1 μM) was “had no effect” and the “LPS-induced IL-12p70 without C5a” value (IL-12p70 production; [8]) was “not seen”. For the same molecule, the “P. gingivalis-induced IL-12p70 without exogenous C5a” value (IL-12p70 production; [8]) was “significantly enhanced”, the “reversal of C5a inhibition of P. gingivalis- or LPS-induced IL-12p70” value (IL-12p70 production; [8]) was “completely reversed” and the “reversal of the inhibitory effect of C5a^desArg on IL-12p70” value (IL-12p70 production; C5a^desArg 50 nM, C5aRA 1 μM, A8^Δ71-73 1 μM, SB290157 5 μM) was “full reversal”. The “induction of IL-1beta mRNA in gingiva, therapeutic” value [6, 9] was “significantly reversed induction”, the “induction of TNF-alpha mRNA in gingiva, therapeutic” value [6, 9] was “significantly reversed induction” and the “induction of IL-1beta mRNA in gingiva, preventive” value [6, 10] was “highly effective in inhibiting induction”. The “induction of TNF-alpha mRNA in gingiva, preventive” value [6, 10] was “highly effective in inhibiting induction” and the “efficacy of 1 μg dose compared with 10-fold higher dose” value ([6]; IL-1beta and TNF-alpha mRNA, preventive) was “not significantly different”.

pertussis toxin was tested, and the “effect … on P. gingivalis-induced cAMP” value (intracellular cAMP) was “Significant reversal”.
